Measured values as given in the NIST ThermoML archive (doi:10.1021/je300742t).
± gives the expanded uncertainty stated by the source.

Conditions: 298.15 K, 101.33 kPa, Liquid; for viscosity: Capillary tube (Ostwald / Ubbelohde) method; for speed of sound: Sing-around technique in a fixed-path interferometer; for mass density: Vibrating tube method

| SMILES | viscosity | speed of sound | mass density |
| --- | --- | --- | --- |
| NCCO [2-aminoethan-1-ol] | 18.74 ± 0.13 mPa·s | 1719.2 ± 1.7 m/s | 1011.98 ± 0.3 kg/m3 |
| CN1CCCC1=O [N-methylpyrrolidone] | 1.681 ± 0.013 mPa·s | 1545.2 ± 1.7 m/s | 1028.3 ± 0.31 kg/m3 |
